The record followed here is ChEMBL document CHEMBL3714729, “Heterocyclic compounds for the inhibition of pask” (2012).

Assay [1] addresses T1, PAS domain-containing serine/threonine-protein kinase (Homo sapiens, UniProt Q96RG2). The assay can be described thus: Inhibition of human recombinant PASK using Ulight-peptide substrate incubated for 2 hrs by TR-FRET assay.
Assay [2] concerns the target Casein kinase II subunit alpha' (Homo sapiens, UniProt P19784). The assay can be described thus: Inhibition of GST-tagged full-length purified human CK2a2 using RRRDDDSDDD substrate incubated for 120 mins in presence of [33P]ATP by scintillation counting based biochemical assay.
The target of assay [3] is T1, PAS domain-containing serine/threonine-protein kinase. The assay can be described thus: Inhibition of N-terminal GST-tagged human recombinant PASK kinase domain (879 to 1323 residues) expressed in insect cells using MBP protein substrate incubated for 120 mins in presence of [33P]ATP by scintillation counting based radiochemical assay.

Casein kinase II subunit alpha', sequence (P19784 whole entry, the tested form may be a part): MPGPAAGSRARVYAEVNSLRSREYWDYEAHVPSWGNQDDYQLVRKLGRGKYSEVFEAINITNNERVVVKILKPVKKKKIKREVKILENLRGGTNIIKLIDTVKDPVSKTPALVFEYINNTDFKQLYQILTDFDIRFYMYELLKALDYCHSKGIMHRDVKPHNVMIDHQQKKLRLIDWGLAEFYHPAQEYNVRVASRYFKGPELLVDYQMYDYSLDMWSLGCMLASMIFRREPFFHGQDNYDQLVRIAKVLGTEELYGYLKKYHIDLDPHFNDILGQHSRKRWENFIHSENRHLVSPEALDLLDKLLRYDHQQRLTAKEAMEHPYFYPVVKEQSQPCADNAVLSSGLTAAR
T1 sequence (Q96RG2 whole entry, the tested form may be a part): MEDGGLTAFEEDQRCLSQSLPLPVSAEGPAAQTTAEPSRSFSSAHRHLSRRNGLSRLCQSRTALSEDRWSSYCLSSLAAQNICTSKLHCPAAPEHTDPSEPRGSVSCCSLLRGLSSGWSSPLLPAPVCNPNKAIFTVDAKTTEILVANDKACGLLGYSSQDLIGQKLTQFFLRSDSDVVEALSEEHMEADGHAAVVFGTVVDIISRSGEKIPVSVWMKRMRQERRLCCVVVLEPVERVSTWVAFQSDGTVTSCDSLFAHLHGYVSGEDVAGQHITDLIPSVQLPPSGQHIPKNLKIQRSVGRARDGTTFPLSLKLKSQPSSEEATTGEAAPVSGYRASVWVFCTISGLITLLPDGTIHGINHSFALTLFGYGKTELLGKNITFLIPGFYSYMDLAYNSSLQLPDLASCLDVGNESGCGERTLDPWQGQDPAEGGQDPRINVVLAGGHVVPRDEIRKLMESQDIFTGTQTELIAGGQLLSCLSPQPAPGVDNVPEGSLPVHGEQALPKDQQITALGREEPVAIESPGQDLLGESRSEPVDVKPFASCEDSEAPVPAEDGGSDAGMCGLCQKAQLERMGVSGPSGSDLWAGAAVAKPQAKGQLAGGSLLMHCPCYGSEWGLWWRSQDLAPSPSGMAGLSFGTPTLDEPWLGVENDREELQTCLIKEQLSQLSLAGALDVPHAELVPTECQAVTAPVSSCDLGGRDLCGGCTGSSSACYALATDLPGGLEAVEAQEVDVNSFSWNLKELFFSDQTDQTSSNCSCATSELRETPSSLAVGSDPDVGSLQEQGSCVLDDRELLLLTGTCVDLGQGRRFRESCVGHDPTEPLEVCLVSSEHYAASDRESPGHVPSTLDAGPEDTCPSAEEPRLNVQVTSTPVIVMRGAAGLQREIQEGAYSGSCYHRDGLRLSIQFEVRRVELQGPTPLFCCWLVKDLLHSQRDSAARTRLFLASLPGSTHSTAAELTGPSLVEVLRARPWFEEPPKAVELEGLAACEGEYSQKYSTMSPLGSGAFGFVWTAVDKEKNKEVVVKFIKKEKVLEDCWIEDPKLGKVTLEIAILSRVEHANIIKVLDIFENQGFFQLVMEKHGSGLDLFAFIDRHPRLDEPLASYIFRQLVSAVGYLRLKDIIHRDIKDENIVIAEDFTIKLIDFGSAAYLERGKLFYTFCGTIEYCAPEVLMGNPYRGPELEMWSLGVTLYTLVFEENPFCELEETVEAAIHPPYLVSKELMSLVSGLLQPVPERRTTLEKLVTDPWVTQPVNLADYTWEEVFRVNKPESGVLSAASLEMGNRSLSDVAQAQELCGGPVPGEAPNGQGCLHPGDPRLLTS

In general, IC50 refers to the midpoint of a concentration-inhibition curve. `O=c1cc(-c2ccc(Cl)cc2)[nH]c2c(-c3cccnc3)c(O)nn12`: the half-maximal inhibitory concentration (IC50) was not above 10 µM in assay [1], not below 10 µM in assay [2] and not above 10 µM in assay [3].

Take `O=c1cc(-c2ccc3c(c2)OCCO3)[nH]c2c(-c3ccc(N4CCCC4)nc3)cnn12`: the half-maximal inhibitory concentration (IC50) in assay [1], in assay [2] and in assay [3] was not above 10 µM throughout.

As to `O=c1cc(-c2ccc(Cl)c(Cl)c2)[nH]c2c(-c3ccccn3)cnn12`, the IC50 in assay [1], in assay [2] and in assay [3] was not above 10 µM each time.

Turning to `O=c1cc(-c2ccccn2)[nH]c2c(-c3ccc(F)cc3)cnn12`, the IC50 in assay [2] and in assay [3] was not above 10 µM throughout.

Regarding `O=c1cc(-c2ccc3c(c2)OC(F)(F)O3)[nH]c2c(-c3ccccn3)cnn12`, the IC50 in assay [1], in assay [2] and in assay [3] was not above 10 µM in each case.

Regarding `O=c1cc(-c2ccc3cc[nH]c3c2)[nH]c2c(-c3ccccc3)cnn12`, the IC50 in assay [1], in assay [2] and in assay [3] was not above 10 µM in each case.

Turning to `O=c1cc(-c2ccc(F)cc2)[nH]c2c(-c3ccccn3)cnn12`, the IC50 in assay [1], in assay [2] and in assay [3] was not above 10 µM in each case.

Consider `O=c1cc(-c2ccc3occc3c2)[nH]c2c(-c3ccccc3)c(O)nn12`, for which the IC50 in assay [1], in assay [2] and in assay [3] was not above 10 µM throughout.

As for `CCc1nn2c(=O)cc(-c3ccc4c(c3)OCO4)[nH]c2c1-c1ccccn1`, the IC50 in assay [1], in assay [2] and in assay [3] was not above 10 µM in each case.

As for `Cc1nn2c(=O)cc(-c3ccc4ncccc4c3)[nH]c2c1Cc1ccccc1`, the IC50 in assay [1], in assay [2] and in assay [3] was not above 10 µM in each case.

With `O=c1cc(-c2cc3ccccc3o2)[nH]c2c(-c3ccccn3)cnn12`, the IC50 in assay [1], in assay [2] and in assay [3] was not above 10 µM in each case.

With `Nc1nn2c(=O)cc(-c3ccc(Cl)cc3F)[nH]c2c1-c1ccccn1`, the IC50 in assay [1], in assay [2] and in assay [3] was not above 10 µM throughout.

As for `NC(=O)c1cnn2c(=O)cc(-c3ccc4c(c3)OCCO4)[nH]c12`, the IC50 in assay [1], in assay [2] and in assay [3] was not above 10 µM each time.

On to `O=c1cc(-c2ccc3c(c2)CCO3)[nH]c2c(-c3ccccc3)cnn12`, for which the IC50 in assay [1], in assay [2] and in assay [3] was not above 10 µM each time.

Regarding `Nc1nn2c(=O)cc(-c3ccc(Cl)cc3)[nH]c2c1-c1ccccn1`, the IC50 in assay [1], in assay [2] and in assay [3] was not above 10 µM throughout.

In the case of `O=c1cc(-c2ccc3c(c2)CCO3)[nH]c2c(-c3cccnc3)cnn12`, the IC50 in assay [1], in assay [2] and in assay [3] was not above 10 µM each time.

On to `COc1cccc(-c2cnn3c(=O)cc(-c4ccc5c(c4)OCCO5)[nH]c23)c1`, for which the IC50 in assay [1], in assay [2] and in assay [3] was not above 10 µM in each case.

`Nc1nn2c(=O)cc(-c3ccc4c(c3)OCCO4)[nH]c2c1-c1ccccn1`: the IC50 in assay [1], in assay [2] and in assay [3] was not above 10 µM each time.

On to `CCCNC(=O)c1cnn2c(=O)cc(-c3ccc4c(c3)OCCO4)[nH]c12`, for which the IC50 in assay [1], in assay [2] and in assay [3] was not above 10 µM in each case.

In the case of `Nc1nn2c(=O)cc(-c3ccc(F)cc3)[nH]c2c1-c1ccccn1`, the IC50 in assay [1], in assay [2] and in assay [3] was not above 10 µM in each case.

`O=C(NCc1ccccc1)c1cnn2c(=O)cc(-c3ccc(Cl)cc3)[nH]c12`: the IC50 in assay [1], in assay [2] and in assay [3] was not above 10 µM in each case.

Regarding `Cc1nn2c(=O)cc(-c3ccc4c(c3)OCCO4)[nH]c2c1-c1ccc(F)cc1`, the 50% inhibitory concentration (IC50) in assay [1], in assay [2] and in assay [3] was not above 10 µM in each case.

On to `Cc1nn2c(=O)cc(-c3cccnc3)[nH]c2c1-c1ccc(F)cc1`, for which the IC50 in assay [2] and in assay [3] was not above 10 µM each time.

Turning to `COc1ccc(-c2cc(=O)n3ncc(-c4ccccn4)c3[nH]2)cc1OC`, the 50% inhibitory concentration (IC50) in assay [1], in assay [2] and in assay [3] was not above 10 µM each time.

As for `CCCc1c(C)nn2c(=O)cc(-c3ccc(OC)cc3)[nH]c12`, the IC50 is not above 10 µM in assay [1], not below 10 µM in assay [2] and not above 10 µM in assay [3].

As to `COc1ccccc1-c1cc(=O)n2ncc(-c3ccccn3)c2[nH]1`, the IC50 in assay [1], in assay [2] and in assay [3] was not above 10 µM in each case.

With `O=c1cc(-c2ccc(F)cc2)[nH]c2c(-c3ccccn3)c(O)nn12`, the values for the IC50 in assay [1], in assay [2] and in assay [3] were not above 10 µM, not below 10 µM and not above 10 µM, respectively.

Turning to `O=c1cc(-c2ccc3c(c2)CCO3)[nH]c2c(-c3ccccn3)cnn12`, the IC50 in assay [1], in assay [2] and in assay [3] was not above 10 µM each time.

As for `CC(=O)Nc1nn2c(=O)cc(-c3ccc4c(c3)OCO4)[nH]c2c1-c1ccccn1`, the IC50 in assay [1], in assay [2] and in assay [3] was not above 10 µM each time.

In the case of `O=c1cc(-c2ccc3c(c2)OCO3)[nH]c2c(-c3cccnc3)c(O)nn12`, the IC50 in assay [1], in assay [2] and in assay [3] was not above 10 µM throughout.

For the compound `CCNc1nn2c(=O)cc(-c3ccc4c(c3)OCO4)[nH]c2c1-c1ccccn1`, the half-inhibitory concentration (IC50) in assay [1], in assay [2] and in assay [3] was not above 10 µM each time.

As to `Nc1nn2c(=O)cc(-c3ccc4c(c3)OCO4)[nH]c2c1-c1ccccn1`, the IC50 in assay [1], in assay [2] and in assay [3] was not above 10 µM throughout.

Consider `O=c1cc(-c2ccc3c(c2)CCO3)[nH]c2c(-c3cccnc3)c(O)nn12`, for which the IC50 in assay [1], in assay [2] and in assay [3] was not above 10 µM in each case.

With `Nc1nn2c(=O)cc(-c3ccc4[nH]ncc4c3)[nH]c2c1-c1ccccn1`, the IC50 in assay [1], in assay [2] and in assay [3] was not above 10 µM throughout.

As for `Nc1nn2c(=O)cc(-c3ccc4c(c3)OCCO4)[nH]c2c1-c1ccccc1`, the IC50 in assay [1], in assay [2] and in assay [3] was not above 10 µM each time.

As for `Cc1nn2c(=O)cc(-c3ccc4c(c3)OCO4)[nH]c2c1Cc1cccc(Cl)c1`, the IC50 in assay [1], in assay [2] and in assay [3] was not above 10 µM each time.

Regarding `O=c1cc(-c2ccc3c(c2)OCCO3)[nH]c2c(-c3ccccc3)c(C(F)(F)F)nn12`, the IC50 in assay [1], in assay [2] and in assay [3] was not above 10 µM throughout.

As for `O=c1cc(-c2ccc3occc3c2)[nH]c2c(-c3cccnc3)c(O)nn12`, the concentration for half-maximal inhibition (IC50) in assay [1], in assay [2] and in assay [3] was not above 10 µM in each case.

Regarding `O=c1cc(-c2ccc3c(c2)OCO3)[nH]c2c(Cc3ccccc3)cnn12`, the IC50 in assay [1], in assay [2] and in assay [3] was not above 10 µM each time.

As to `O=c1cc(-c2ccc3[nH]ncc3c2)[nH]c2c(-c3ccccn3)cnn12`, the IC50 in assay [1], in assay [2] and in assay [3] was not above 10 µM in each case.

On to `O=c1cc(-c2ccc3occc3c2)[nH]c2c(-c3ccccc3)cnn12`, for which the IC50 in assay [1], in assay [2] and in assay [3] was not above 10 µM each time.

In the case of `Cc1nn2c(=O)cc(-c3ccc4c(c3)OCO4)[nH]c2c1Cc1ccc(Cl)cc1`, the IC50 in assay [1], in assay [2] and in assay [3] was not above 10 µM throughout.

On to `COc1ccc(-c2cc(=O)n3nc(O)c(-c4ccccn4)c3[nH]2)c(OC)c1`, for which the IC50 is not above 10 µM in assay [1], not below 10 µM in assay [2] and not above 10 µM in assay [3].

`COc1ccc(-c2cc(=O)n3ncc(-c4cccnc4)c3[nH]2)cc1`: the IC50 in assay [1], in assay [2] and in assay [3] was not above 10 µM each time.

For the compound `O=c1cc(-c2ccc3c(c2)CCO3)[nH]c2c(-c3ccccn3)c(O)nn12`, the IC50 in assay [1] was not above 10 µM; in assay [2], not below 10 µM; in assay [3], not above 10 µM.

For the compound `O=c1cc(-c2ccc3c(c2)OCO3)[nH]c2c(-c3ncccc3F)cnn12`, the IC50 in assay [1], in assay [2] and in assay [3] was not above 10 µM each time.

As to `O=c1cc(-c2ccc3occc3c2)[nH]c2c(-c3ccccn3)c(O)nn12`, the half-inhibitory concentration (IC50) in assay [1], in assay [2] and in assay [3] was not above 10 µM in each case.

Take `N#Cc1cnn2c(=O)cc(-c3ccc4c(c3)OCCO4)[nH]c12`: the IC50 in assay [1], in assay [2] and in assay [3] was not above 10 µM in each case.

As to `COc1ccc2c(c1)CCc1c-2[nH]c2c(-c3ccccn3)cnn2c1=O`, the IC50 in assay [1], in assay [2] and in assay [3] was not above 10 µM throughout.

As to `O=c1cc(-c2ccc(Cl)cc2)[nH]c2c(-c3ccccn3)c(O)nn12`, the IC50 was not above 10 µM in assay [1], not below 10 µM in assay [2] and not above 10 µM in assay [3].

With `Nc1nn2c(=O)cc(-c3ccc4[nH]nnc4c3)[nH]c2c1-c1ccccn1`, the IC50 in assay [1], in assay [2] and in assay [3] was not above 10 µM each time.

Take `CN(Cc1ccccc1)C(=O)c1cnn2c(=O)cc(-c3ccc4c(c3)OCCO4)[nH]c12`: the half-maximal inhibitory concentration (IC50) in assay [1], in assay [2] and in assay [3] was not above 10 µM each time.

Take `Nc1nn2c(=O)cc(-c3ccc(Cl)cc3)[nH]c2c1-c1ccccc1`: the IC50 in assay [1], in assay [2] and in assay [3] was not above 10 µM throughout.
